According to PMC9481151, “Discovery of new symmetrical and asymmetrical nitrile-containing 1,4-dihydropyridine derivatives as dual kinases and P-glycoprotein inhibitors: synthesis, in vitro assays, and in silico studies” (Journal of Enzyme Inhibition and Medicinal Chemistry, 2022):
Several values for one entry are separate records, joined by “and”; a condition that tells them apart may be missing. Equal values may be shown once.

Legend:
SK-MEL-5 = assay: NCI single dose (10 µM) SRB screen; type: cell-based, human; settings: melanoma, 48 h
HS578T = assay: NCI single dose (10 µM) SRB screen; type: cell-based, human; settings: breast cancer, 48 h
MALME-3M = assay: NCI single dose (10 µM) SRB screen; type: cell-based, human; settings: melanoma, 48 h
MDA-MB-435 = assay: NCI single dose (10 µM) SRB screen; type: cell-based, human; settings: melanoma, 48 h
SNB-75 = assay: NCI single dose (10 µM) SRB screen; type: cell-based, human; settings: CNS cancer, 48 h
HCT-116 = assay: NCI single dose (10 µM) SRB screen; type: cell-based, human; settings: colon cancer, 48 h
U251 = assay: NCI single dose (10 µM) SRB screen; type: cell-based, human; settings: CNS cancer, 48 h
NCI-H522 = assay: NCI single dose (10 µM) SRB screen; type: cell-based, human; settings: non-small cell lung cancer, 48 h
NCI-H23 = assay: NCI single dose (10 µM) SRB screen; type: cell-based, human; settings: non-small cell lung cancer, 48 h
SW-620 = assay: NCI single dose (10 µM) SRB screen; type: cell-based, human; settings: colon cancer, 48 h
MDA-MB-231 = assay: NCI single dose (10 µM) SRB screen; type: cell-based, human; settings: breast cancer, 48 h
SNB-19 = assay: NCI single dose (10 µM) SRB screen; type: cell-based, human; settings: CNS cancer, 48 h
HCT-15 = assay: NCI single dose (10 µM) SRB screen; type: cell-based, human; settings: colon cancer, 48 h
NCI-H460 = assay: NCI single dose (10 µM) SRB screen; type: cell-based, human; settings: non-small cell lung cancer, 48 h
SF-268 = assay: NCI single dose (10 µM) SRB screen; type: cell-based, human; settings: CNS cancer, 48 h
SF-295 = assay: NCI single dose (10 µM) SRB screen; type: cell-based, human; settings: CNS cancer, 48 h
NCI-H226 = assay: NCI single dose (10 µM) SRB screen; type: cell-based, human; settings: non-small cell lung cancer, 48 h
OVCAR-5 = assay: NCI single dose (10 µM) SRB screen; type: cell-based, human; settings: ovarian cancer, 48 h
KM12 = assay: NCI single dose (10 µM) SRB screen; type: cell-based, human; settings: colon cancer, 48 h
K-562 = assay: NCI single dose (10 µM) SRB screen; type: cell-based, human; settings: leukaemia, 48 h
SN12C = assay: NCI single dose (10 µM) SRB screen; type: cell-based, human; settings: renal cancer, 48 h
786-0 = assay: NCI single dose (10 µM) SRB screen; type: cell-based, human; settings: renal cancer, 48 h
RPMI-8226 = assay: NCI single dose (10 µM) SRB screen; type: cell-based, human; settings: leukaemia, 48 h
HOP-62 = assay: NCI single dose (10 µM) SRB screen; type: cell-based, human; settings: non-small cell lung cancer, 48 h
HT29 = assay: NCI single dose (10 µM) SRB screen; type: cell-based, human; settings: colon cancer, 48 h
COLO 205 = assay: NCI single dose (10 µM) SRB screen; type: cell-based, human; settings: colon cancer, 48 h
TK-10 = assay: NCI single dose (10 µM) SRB screen; type: cell-based, human; settings: renal cancer, 48 h
PC-3 = assay: NCI single dose (10 µM) SRB screen; type: cell-based, human; settings: prostate cancer, 48 h
IGROV1 = assay: NCI single dose (10 µM) SRB screen; type: cell-based, human; settings: ovarian cancer, 48 h
T-47D = assay: NCI single dose (10 µM) SRB screen; type: cell-based, human; settings: breast cancer, 48 h
NCI/ADR-RES = assay: NCI single dose (10 µM) SRB screen; type: cell-based, human; settings: ovarian cancer, 48 h
Bacillus subtilis = assay: Agar well diffusion method; settings: for % activity index, B. subtilis: relative to ciprofloxacin
SR = assay: NCI single dose (10 µM) SRB screen; type: cell-based, human; settings: leukaemia, 48 h
M14 = assay: NCI single dose (10 µM) SRB screen; type: cell-based, human; settings: melanoma, 48 h
HCC-2998 = assay: NCI single dose (10 µM) SRB screen; type: cell-based, human; settings: colon cancer, 48 h
SK-MEL-28 = assay: NCI single dose (10 µM) SRB screen; type: cell-based, human; settings: melanoma, 48 h
DU-145 = assay: NCI single dose (10 µM) SRB screen; type: cell-based, human; settings: prostate cancer, 48 h
Candida albicans = assay: Agar well diffusion method; settings: for % activity index, C. albicans: relative to clotrimazole
CCRF-CEM = assay: NCI single dose (10 µM) SRB screen; type: cell-based, human; settings: leukaemia, 48 h
EKVX = assay: NCI single dose (10 µM) SRB screen; type: cell-based, human; settings: non-small cell lung cancer, 48 h
LOX IMVI = assay: NCI single dose (10 µM) SRB screen; type: cell-based, human; settings: melanoma, 48 h
NCI 60 cancer cell lines = assay: NCI single dose (10 µM) SRB screen, mean over panel; type: cell-based, human; settings: mean over 60 cell lines, 48 h
OVCAR-3 = assay: NCI single dose (10 µM) SRB screen; type: cell-based, human; settings: ovarian cancer, 48 h
MOLT-4 = assay: NCI single dose (10 µM) SRB screen; type: cell-based, human; settings: leukaemia, 48 h
Escherichia coli = assay: Agar well diffusion method; settings: for % activity index, E. coli: relative to ciprofloxacin
HOP-92 = assay: NCI single dose (10 µM) SRB screen; type: cell-based, human; settings: non-small cell lung cancer, 48 h
SK-MEL-2 = assay: NCI single dose (10 µM) SRB screen; type: cell-based, human; settings: melanoma, 48 h
SK-OV-3 = assay: NCI single dose (10 µM) SRB screen; type: cell-based, human; settings: ovarian cancer, 48 h
Staphylococcus aureus = assay: Agar well diffusion method; settings: for % activity index, S. aureus: relative to ciprofloxacin
Pseudomonas aeruginosa = assay: Agar well diffusion method; settings: for % activity index, P. aeruginosa: relative to ciprofloxacin
MDA-MB-468 = assay: NCI single dose (10 µM) SRB screen; type: cell-based, human; settings: breast cancer, 48 h

SMILES: CCOC(=O)C1=C(C)NC(C)=C(C(=O)OC(C)(C)C)C1c1cccc(C#N)c1 (racemic) [Compound 2j, (±)-3-Tert-butyl 5-ethyl 4-(3-cyanophenyl)-2,6-dimethyl-1,4-dihydropyridine-3,5-dicarboxylate]
- GI% SK-MEL-5 (SK-MEL-5): – (Only GI% ≥ 10 are shown)
- GI% HS578T (HS578T): – (Only GI% ≥ 10 are shown)
- GI% MALME-3M (MALME-3M): – (Only GI% ≥ 10 are shown)
- GI% MDA-MB-435 (MDA-MB-435): – (Only GI% ≥ 10 are shown)
- GI% SNB-75 (SNB-75): 22%
- GI% HCT-116 (HCT-116): 13%
- GI% U251 (U251): – (Only GI% ≥ 10 are shown)
- GI% NCI-H522 (NCI-H522): 13%
- GI% NCI-H23 (NCI-H23): – (Only GI% ≥ 10 are shown)
- GI% SW-620 (SW-620): – (Only GI% ≥ 10 are shown)
- GI% MDA-MB-231 (MDA-MB-231): – (Only GI% ≥ 10 are shown)
- GI% SNB-19 (SNB-19): – (Only GI% ≥ 10 are shown)
- GI% HCT-15 (HCT-15): – (Only GI% ≥ 10 are shown)
- GI% NCI-H460 (NCI-H460): – (Only GI% ≥ 10 are shown)
- GI% SF-268 (SF-268): – (Only GI% ≥ 10 are shown)
- GI% SF-295 (SF-295): – (Only GI% ≥ 10 are shown)
- GI% NCI-H226 (NCI-H226): – (Only GI% ≥ 10 are shown)
- GI% OVCAR-5 (OVCAR-5): – (Only GI% ≥ 10 are shown)
- GI% KM12 (KM12): – (Only GI% ≥ 10 are shown)
- GI% K-562 (K-562): 17%
- GI% SN12C (SN12C): – (Only GI% ≥ 10 are shown)
- GI% 786-0 (786-0): 13%
- GI% RPMI-8226 (RPMI-8226): 12%
- GI% HOP-62 (HOP-62): – (Only GI% ≥ 10 are shown)
- GI% HT29 (HT29): – (Only GI% ≥ 10 are shown)
- GI% COLO 205 (COLO 205): – (Only GI% ≥ 10 are shown)
- GI% TK-10 (TK-10): – (Only GI% ≥ 10 are shown)
- GI% PC-3 (PC-3): 18%
- GI% IGROV1 (IGROV1): – (Only GI% ≥ 10 are shown)
- GI% T-47D (T-47D): – (Only GI% ≥ 10 are shown)
- GI% NCI/ADR-RES (NCI/ADR-RES): 10%
- zone of inhibition at 1000 µg/mL (Bacillus subtilis; Bacillus subtilis, 24 h, read-out: Diameter of inhibition zone, B. subtilis): 15 mm
- % activity index, B. subtilis (Bacillus subtilis): 65.2%
- GI% SR (SR): 22%
- GI% M14 (M14): – (Only GI% ≥ 10 are shown)
- GI% HCC-2998 (HCC-2998): – (Only GI% ≥ 10 are shown)
- GI% SK-MEL-28 (SK-MEL-28): – (Only GI% ≥ 10 are shown)
- GI% DU-145 (DU-145): – (Only GI% ≥ 10 are shown)
- zone of inhibition at 1000 µg/mL (Candida albicans; Candida albicans, 24 h, read-out: Diameter of inhibition zone, C. albicans): 19 mm
- % activity index, C. albicans (Candida albicans): 70% and 70.4%
- GI% CCRF-CEM (CCRF-CEM): – (Only GI% ≥ 10 are shown)
- GI% EKVX (EKVX): 10%
- GI% LOX IMVI (LOX IMVI): – (Only GI% ≥ 10 are shown)
- Mean GI% (NCI 60 cancer cell lines): 4%
- GI% OVCAR-3 (OVCAR-3): – (Only GI% ≥ 10 are shown)
- GI% MOLT-4 (MOLT-4): 17%
- zone of inhibition at 1000 µg/mL (Escherichia coli; Escherichia coli, 24 h, read-out: Diameter of inhibition zone, E. coli): 18 mm
- % activity index, E. coli (Escherichia coli): 69% and 69.2%
- GI% HOP-92 (HOP-92): – (Only GI% ≥ 10 are shown)
- GI% SK-MEL-2 (SK-MEL-2): – (Only GI% ≥ 10 are shown)
- GI% SK-OV-3 (SK-OV-3): – (Only GI% ≥ 10 are shown)
- zone of inhibition at 1000 µg/mL (Staphylococcus aureus; Staphylococcus aureus, 24 h, read-out: Diameter of inhibition zone, S. aureus): 18 mm
- % activity index, S. aureus (Staphylococcus aureus): 75%
- zone of inhibition at 1000 µg/mL (Pseudomonas aeruginosa; Pseudomonas aeruginosa, 24 h, read-out: Diameter of inhibition zone, P. aeruginosa): 20 mm
- % activity index, P. aeruginosa (Pseudomonas aeruginosa): 86% and 86.9%
- GI% MDA-MB-468 (MDA-MB-468): 10%

SMILES: CCOC(=O)C1=C(C)NC(C)=C(C(=O)OCc2ccccc2)C1c1cccc(C#N)c1 (racemic) [Compound 2l, (±)-3- Benzyl 5-ethyl 4-(3-cyanophenyl)-2,6-dimethyl-1,4-dihydropyridine-3,5-dicarboxylate]
- GI% SK-MEL-5 (SK-MEL-5): 45%
- GI% HS578T (HS578T): 59%
- GI% MALME-3M (MALME-3M): 62%
- GI% MDA-MB-435 (MDA-MB-435): 110%
- GI% SNB-75 (SNB-75): 104%
- GI% HCT-116 (HCT-116): 86%
- GI% U251 (U251): 58%
- GI% NCI-H522 (NCI-H522): 90%
- GI% NCI-H23 (NCI-H23): 37%
- GI% SW-620 (SW-620): 70%
- GI% MDA-MB-231 (MDA-MB-231): 47%
- GI% SNB-19 (SNB-19): 58%
- GI% HCT-15 (HCT-15): 77%
- GI% NCI-H460 (NCI-H460): 77%
- GI% SF-268 (SF-268): 42%
- GI% SF-295 (SF-295): 84%
- GI% NCI-H226 (NCI-H226): 41%
- GI% OVCAR-5 (OVCAR-5): 38%
- GI% KM12 (KM12): 74%
- GI% K-562 (K-562): 83%
- GI% SN12C (SN12C): 63%
- GI% 786-0 (786-0): 63%
- GI% RPMI-8226 (RPMI-8226): 67%
- GI% HOP-62 (HOP-62): 54%
- GI% HT29 (HT29): 88%
- GI% COLO 205 (COLO 205): 65%
- GI% TK-10 (TK-10): 16%
- GI% PC-3 (PC-3): 66%
- GI% IGROV1 (IGROV1): 57%
- GI% T-47D (T-47D): 72%
- GI% NCI/ADR-RES (NCI/ADR-RES): 77%
- % activity index, B. subtilis (Bacillus subtilis): – (Values below 25 are of limited value and not shown as they refer either to inactive or non-diffusing compounds)
- GI% SR (SR): 78%
- GI% M14 (M14): 85%
- GI% HCC-2998 (HCC-2998): 29%
- GI% SK-MEL-28 (SK-MEL-28): 48%
- GI% DU-145 (DU-145): 42%
- % activity index, C. albicans (Candida albicans): – (Values below 25 are of limited value and not shown as they refer either to inactive or non-diffusing compounds)
- GI% CCRF-CEM (CCRF-CEM): 74%
- GI% EKVX (EKVX): 62%
- GI% LOX IMVI (LOX IMVI): 64%
- Mean GI% (NCI 60 cancer cell lines): 64%
- GI% OVCAR-3 (OVCAR-3): 76%
- GI% MOLT-4 (MOLT-4): 68%
- % activity index, E. coli (Escherichia coli): – (Values below 25 are of limited value and not shown as they refer either to inactive or non-diffusing compounds)
- GI% HOP-92 (HOP-92): 49%
- GI% SK-MEL-2 (SK-MEL-2): 75%
- GI% SK-OV-3 (SK-OV-3): 24%
- % activity index, S. aureus (Staphylococcus aureus): – (Values below 25 are of limited value and not shown as they refer either to inactive or non-diffusing compounds)
- % activity index, P. aeruginosa (Pseudomonas aeruginosa): – (Values below 25 are of limited value and not shown as they refer either to inactive or non-diffusing compounds)
- GI% MDA-MB-468 (MDA-MB-468): 84%
